Test results reported in ChEMBL document CHEMBL1138574, “Regioselective synthesis and stereochemical structure of anti-tumor active dispiro[3H-indole-3,2'-pyrrolidine-3',3''-piperidine]-2(1H),4''-diones” (2009).

Legend:
Format in all cases: functional
ACHN = assay: Antitumor activity against human ACHN cells assessed as cell growth at 10 uM after 48 hrs by sulforhodamine B assay; conditions: read-out: Activity
IGROV-1 = assay: Antitumor activity against human IGROV1 cells assessed as cell growth at 10 uM after 48 hrs by sulforhodamine B assay; conditions: IGROV-1, 48 h, read-out: Activity
TK-10 = assay: Antitumor activity against human TK10 cells assessed as cell growth at 10 uM after 48 hrs by sulforhodamine B assay; conditions: TK-10, 48 h, read-out: Activity
HOP-92 = assay: Antitumor activity against human HOP92 cells assessed as cell growth at 10 uM after 48 hrs by sulforhodamine B assay; conditions: HOP-92, 48 h, read-out: Activity
NCI-H322M = assay: Antitumor activity against human NCI-H322M cells assessed as cell growth at 10 uM after 48 hrs by sulforhodamine B assay; conditions: read-out: Activity
MDA-MB-435 = assay: Antitumor activity against human MDA-MB-435 cells assessed as cell growth at 10 uM after 48 hrs by sulforhodamine B assay; conditions: MDA-MB-435, 48 h, read-out: Activity
M14 = assay: Antitumor activity against human M14 cells assessed as cell growth at 10 uM after 48 hrs by sulforhodamine B assay; conditions: M14, 48 h, read-out: Activity
NCI-H460 = assay: Antitumor activity against human NCI-H460 cells assessed as cell growth at 10 uM after 48 hrs by sulforhodamine B assay; conditions: NCI-H460, 48 h, read-out: Activity
COLO 205 = assay: Antitumor activity against human COLO205 cells assessed as cell growth at 10 uM after 48 hrs by sulforhodamine B assay; conditions: COLO 205, 48 h, read-out: Activity
PC-3 = assay: Antitumor activity against human PC3 cells assessed as cell growth at 10 uM after 48 hrs by sulforhodamine B assay; conditions: PC-3, 48 h, read-out: Activity
SF-539 = assay: Antitumor activity against human SF539 cells assessed as cell growth at 10 uM after 48 hrs by sulforhodamine B assay; conditions: SF-539, 48 h, read-out: Activity
[1] = Antitumor activity against human Hs 578T cells assessed as cell growth at 10 uM after 48 hrs by sulforhodamine B assay; conditions: read-out: Activity
[2] = Antitumor activity against human […] cells assessed as cell growth at 10 uM after 48 hrs by sulforhodamine B assay; conditions: read-out: Activity
LOX IMVI = assay: Antitumor activity against human LOXIMVI cells assessed as cell growth at 10 uM after 48 hrs by sulforhodamine B assay; conditions: read-out: Activity
CCRF-CEM = assay: Antitumor activity against human CCRF-CEM cells assessed as cell growth at 10 uM after 48 hrs by sulforhodamine B assay; conditions: read-out: Activity
HL-60(TB) = assay: Antitumor activity against human HL-60(TB) cells assessed as cell growth at 10 uM after 48 hrs by sulforhodamine B assay; conditions: HL-60, 48 h, read-out: Activity
MCF7 = assay: Antitumor activity against human MCF7 cells assessed as cell growth at 10 uM after 48 hrs by sulforhodamine B assay; conditions: MCF7, 48 h, read-out: Activity
OVCAR-8 = assay: Antitumor activity against human OVCAR8 cells assessed as cell growth at 10 uM after 48 hrs by sulforhodamine B assay; conditions: OVCAR-8, 48 h, read-out: Activity
K562 = assay: Antitumor activity against human K562 cells assessed as cell growth at 10 uM after 48 hrs by sulforhodamine B assay; conditions: K562, 48 h, read-out: Activity
MOLT-4 = assay: Antitumor activity against human MOLT4 cells assessed as cell growth at 10 uM after 48 hrs by sulforhodamine B assay; conditions: MOLT-4, 48 h, read-out: Activity
MDA-MB-231 = assay: Antitumor activity against human MDA-MB-231 cells assessed as cell growth at 10 uM after 48 hrs by sulforhodamine B assay; conditions: MDA-MB-231, 48 h, read-out: Activity
SR = assay: Antitumor activity against human SR cells assessed as cell growth at 10 uM after 48 hrs by sulforhodamine B assay; conditions: read-out: Activity
SNB-19 = assay: Antitumor activity against human SNB19 cells assessed as cell growth at 10 uM after 48 hrs by sulforhodamine B assay; conditions: SNB-19, 48 h, read-out: Activity
UO-31 = assay: Antitumor activity against human UO31 cells assessed as cell growth at 10 uM after 48 hrs by sulforhodamine B assay; conditions: UO-31, 48 h, read-out: Activity
T47D = assay: Antitumor activity against human T47D cells assessed as cell growth at 10 uM after 48 hrs by sulforhodamine B assay; conditions: read-out: Activity
SF-268 = assay: Antitumor activity against human SF268 cells assessed as cell growth at 10 uM after 48 hrs by sulforhodamine B assay; conditions: SF-268, 48 h, read-out: Activity
NCI/ADR-RES = assay: Antitumor activity against human NCI/ADR-RES cells assessed as cell growth at 10 uM after 48 hrs by sulforhodamine B assay; conditions: read-out: Activity
EKVX = assay: Antitumor activity against human EKVX cells assessed as cell growth at 10 uM after 48 hrs by sulforhodamine B assay; conditions: read-out: Activity
Rattus norvegicus = assay: Antiinflammatory activity in Wister albino rat assessed as inhibition of carrageenan-induced paw oedema at 50 mg/kg, ip administered 1 hr before carrageenan challenge measured after 4 hrs of induction of inflammation relative to indomethacin; conditions: route intraperitoneal
SF-295 = assay: Antitumor activity against human SF295 cells assessed as cell growth at 10 uM after 48 hrs by sulforhodamine B assay; conditions: SF-295, 48 h, read-out: Activity

SMILES	growth at 10 µM (ACHN) [%]	growth at 10 µM (IGROV-1) [%]	growth at 10 µM (TK-10) [%]	growth at 10 µM (HOP-92) [%]	growth at 10 µM (NCI-H322M) [%]	growth at 10 µM (MDA-MB-435) [%]	growth at 10 µM (M14) [%]	growth at 10 µM (NCI-H460) [%]	growth at 10 µM (COLO 205) [%]	growth at 10 µM (PC-3) [%]	growth at 10 µM (SF-539) [%]	growth at 10 µM [1] [%]	growth at 10 µM [2] [%]	growth at 10 µM (LOX IMVI) [%]	growth at 10 µM (CCRF-CEM) [%]	growth at 10 µM (HL-60(TB)) [%]	growth at 10 µM (MCF7) [%]	growth at 10 µM (OVCAR-8) [%]	growth at 10 µM (K562) [%]	growth at 10 µM (MOLT-4) [%]	other results
CN1C/C(=C\c2ccc(-c3cccs3)cc2)C(=O)[C@]2(C1)[C@@H](c1ccc(-c3cccs3)cc1)CN(C)[C@@]21C(=O)N(C)c2ccccc21	56.5	81.4	78.8	41.1	75	40.6	58.5	52.1	69	17.8	75.4	79.3	10.6	65	56.4	22.6	50.4	65.7	59.5	27.2	growth at 10 µM (MDA-MB-231): 52.4%; growth at 10 µM (SR): 30.5%; growth at 10 µM (SNB-19): 65.3%; growth at 10 µM (UO-31): 45.4%; growth at 10 µM (T47D): 22.7%; growth at 10 µM (SF-268): 72.4%; growth at 10 µM (NCI/ADR-RES): 37.7%; growth at 10 µM (EKVX): 47.1%; inhibition in vivo at 50 mg/kg (Rattus norvegicus): 124%
COc1ccc(/C=C2\CN(C)C[C@@]3(C2=O)[C@@H](c2ccccc2)CN(C)[C@@]32C(=O)Nc3ccccc32)cc1	49.1	79.4	73.1	46.7	79.7	60.7	55.6	52.3	67.4	21	74	74.7	20.7	65.3	45.4	21.5	30.9	52.4	73.3	17.2	growth at 10 µM (MDA-MB-231): 59.4%; growth at 10 µM (SR): 52.3%; growth at 10 µM (SNB-19): 61.6%; growth at 10 µM (UO-31): 40.4%; growth at 10 µM (T47D): 31.6%; growth at 10 µM (SF-268): 61.8%; growth at 10 µM (NCI/ADR-RES): 36.5%; growth at 10 µM (EKVX): 64.2%; inhibition in vivo at 50 mg/kg (Rattus norvegicus): 139%
CN1C/C(=C\c2ccc(Cl)cc2)C(=O)[C@]2(C1)[C@@H](c1ccc(Cl)cc1)CN(C)[C@@]21C(=O)N(C)c2ccccc21	57.5	92.1	81.8	61.6	79.1	87.8	77.8	71.5	99.6	32.5	78.1	97.3	38	73.9	31.5	16.6	86.4	79.5	30.4	43.2	growth at 10 µM (SF-295): 65.6%; growth at 10 µM (MDA-MB-231): 70.4%; growth at 10 µM (SR): 70.3%; growth at 10 µM (SNB-19): 77.3%; growth at 10 µM (UO-31): 56.6%; growth at 10 µM (T47D): 46.7%; growth at 10 µM (SF-268): 83.6%; growth at 10 µM (NCI/ADR-RES): 56.9%; growth at 10 µM (EKVX): 42.1%; inhibition in vivo at 50 mg/kg (Rattus norvegicus): 80.9%
CN1C/C(=C\c2ccc(Cl)cc2)C(=O)[C@]2(C1)[C@@H](c1ccc(Cl)cc1)CN(C)[C@@]21C(=O)Nc2ccccc21	63.6	81.8	88.6	56.2	68.7	61.1	78.3	66.7	92.7	24.9	83.3	79.7	38.5	72.3	51.3	41.6	44.9	69.4	45.1	37.4	growth at 10 µM (SF-295): 64.5%; growth at 10 µM (MDA-MB-231): 74.9%; growth at 10 µM (SR): 67.5%; growth at 10 µM (SNB-19): 76.5%; growth at 10 µM (UO-31): 43.2%; growth at 10 µM (T47D): 46.1%; growth at 10 µM (SF-268): 60.6%; growth at 10 µM (NCI/ADR-RES): 62.1%; growth at 10 µM (EKVX): 37.2%; inhibition in vivo at 50 mg/kg (Rattus norvegicus): 74.7%
